Like-named read-outs stand apart in the source and are kept apart here.
Key:
[1] = 0.1% aqueous solution at 25° C.; water 72 dynes/cm; cited from earlier work
[2] = system: all types of microbes (Gram positive, Gram negative bacteria, yeast and mould; the chosen eight organisms); assay: Minimum inhibitory concentration, whole panel; format: cell-based; conditions: up to 1.0% concentration; bacteria, yeast and mould
[3] = Reduction in surface tension of water; format: physicochemical
Protocol: The ‘liquid alcohol ether’ as used herein like 2-ethyl hexyl glyceryl ether is also a surfactant where the hydrophobe is provided by octyl group and the hydrophilic portion is the two hydroxyl groups of glycerine moiety and the ether linkage.
A mixture of octanoic acid (114 g, […]), BHT (0.3 g) and monoethanol amine (61 g, […]) is stirred under nitrogen blanket in a pressure vessel at 140° C. for 4 hr and then the temperature is raised to 165° C. for additional one hour. At this stage, acid value is normally found to be around 5 or less. The reaction was then cooled under mild vacuum to 60° C. and the molten mass is converted into off-white flakes (148 g, 95%) by pouring it on a glass plate. (Melting point 62-64° C., acid value 5, IR (KBr): 1640 cm^−1 (carbonyl of amide), 1556 cm^−1, 2919 cm^−1, 3289 cm^−1 (NH of amide) Reduction is surface tension of water: 0.05% solution, 38.5 dyne/cm, 0.1% solution 30.5 dyne/cm.

[4] = system: Escherichia coli ATCC 10142; assay: Minimum inhibitory concentration; format: cell-based; conditions: ATCC10142
[5] = system: Candida albicans ATCC 10231; assay: Minimum inhibitory concentration; format: cell-based; conditions: ATCC10231
[6] = system: Malassezia furfur MTCC 1374; assay: Minimum inhibitory concentration; format: cell-based; conditions: MTCC1374
[7] = system: Bacillus subtilis ATCC 9372; assay: microbe, parasite or virus in culture; format: cell-based; conditions: ATCC9372
[8] = system: Aspergillus niger ATCC 16404; assay: Minimum inhibitory concentration; format: cell-based; conditions: ATCC16404, Aspergillus niger
[9] = system: Pseudomonas aeruginosa Immuno type IV; assay: Minimum inhibitory concentration; format: cell-based
[10] = system: Staphylococcus aureus ATCC 6538S; assay: Minimum inhibitory concentration; format: cell-based; conditions: ATCC6538S
[11] = system: Propionibacterium acnes MTCC 1951; assay: Minimum inhibitory concentration; format: cell-based; conditions: Cutibacterium acnes, MTCC1951

## CCCCC(CC)COCC(O)CO (centres unmarked) [2-ethyl hexyl glyceryl ether, 3-(2-ethylhexyl) oxy 1,2-propanediol]
[1]
  Surface tension of water: 32 dynes/cm

## CCCCCCCC(=O)NCCO [Octanoyl MEA amide, N-(2-hydroxylethyl)caprylic acid amide]
[2]
  Antimicrobial activity of the ingredient alone: did not exhibit any antibacterial activity
[3]; 0.05% level
  Surface tension of water: 38 dynes/cm
[3]; 0.1% concentration
  Surface tension of water: 30 dynes/cm
[4]; Escherichia coli ATCC 10142, read-out: MINIMUM INHIBITORY CONCENTRATION
  MIC: > 10000 µg/mL
[4]; in Preservative Blend No 2 (10:10:80), Escherichia coli, read-out: Concentration of individual component at MIC of Preservative Blend No 2
  MIC: 300 µg/mL
[5]; Candida albicans ATCC 10231, read-out: MINIMUM INHIBITORY CONCENTRATION
  MIC: > 10000 µg/mL
[5]; in Preservative Blend No 2 (10:10:80), Candida albicans, read-out: Concentration of individual component at MIC of Preservative Blend No 2
  MIC: 200 µg/mL
[6]; Malassezia furfur MTCC 1374, read-out: MINIMUM INHIBITORY CONCENTRATION
  MIC: > 10000 µg/mL
[6]; in Preservative Blend No 2 (10:10:80), Malassezia furfur, read-out: Concentration of individual component at MIC of Preservative Blend No 2
  MIC: 400 µg/mL
[7]; Bacillus subtilis ATCC 9372, read-out: MINIMUM INHIBITORY CONCENTRATION
  MIC: > 10000 µg/mL
[7]; in Preservative Blend No 2 (10:10:80), Bacillus subtilis, read-out: Concentration of individual component at MIC of Preservative Blend No 2
  MIC: 200 µg/mL
[8]; in Preservative Blend No 2 (10:10:80), read-out: Concentration of individual component at MIC of Preservative Blend No 2
  MIC: 200 µg/mL
[8]; read-out: MINIMUM INHIBITORY CONCENTRATION
  MIC: > 10000 µg/mL
[9]; Pseudomonas aeruginosa Immuno type IV, read-out: MINIMUM INHIBITORY CONCENTRATION
  MIC: > 10000 µg/mL
[9]; in Preservative Blend No 2 (10:10:80), Pseudomonas aeruginosa, read-out: Concentration of individual component at MIC of Preservative Blend No 2
  MIC: 300 µg/mL
[10]; Staphylococcus aureus ATCC 6538S, read-out: MINIMUM INHIBITORY CONCENTRATION
  MIC: > 10000 µg/mL
[10]; in Preservative Blend No 2 (10:10:80), Staphylococcus aureus, read-out: Concentration of individual component at MIC of Preservative Blend No 2
  MIC: 300 µg/mL
[11]; Propionibacterium acnes MTCC 1951, read-out: MINIMUM INHIBITORY CONCENTRATION
  MIC: > 10000 µg/mL
[11]; in Preservative Blend No 2 (10:10:80), Propionibacterium acnes, read-out: Concentration of individual component at MIC of Preservative Blend No 2
  MIC: 200 µg/mL
